# Measured values published in US20070244199A1 (priority 2006, published 2007).
# Entries after “also recorded” stand apart in the source; their conditions may differ.
# Assays:
# M. tuberculosis (H37Rv) = test: BACTEC radiometric MIC determination against M. tuberculosis; type: cell-based; conditions: Mycobacterium tuberculosis, read-out: MIC against M.tb
# [1] = Pro-drug decomposition at acid and physiologic pH; type: physicochemical
# Procedure: At physiologic pH (or about 7.5), the molecule slowly breaks down (with a half-time of about 15 hours) to release DSA. This property would enhance the prolonged maintenance of plasma concentrations of the active drug. The MICs of these pro-drug molecules are 6.25 μg/ml (for the 10 carbon compound) and 12.5 μg/ml (for the 8 carbon compound).
# [2] = tested on: M. avium subspecies paratuberculosis (PTB); test: BACTEC inhibition of PTB (paratuberculosis); type: cell-based, Mycobacterium avium subspecies paratuberculosis; conditions: for activity against PTB (BACTEC growth index over time): single agents at the highest concentration
# Source text: The MIC was defined as the lowest inhibitor concentration that yielded a growth index change less than that of the 1:100 control bottle. A modification of this protocol was used for MIC determinations of MAC and M. avium subspecies paratuberculosis (Parrish, 2004). Susceptibilities and MIC determinations of M. tuberculosis isolates to isoniazid, streptomycin, ethambutol, rifampin, and pyrazinamide were done using standard BACTEC methods (Siddiqi, 1992). All primary drugs were purchased from Becton Dickinson (Sparks, Md.).
# The inhibition assay was performed essentially as described in Example 1 for TB and BCG. Briefly, PTB inoculum was standardized by use of “seed vials” of a suspension of microorganisms in supplemented media. The suspension was vortexed with glass beads and then 0.3 ml to 0.5 ml was introduced into individual supplemented BACTEC 12B vials. Vials were subsequently incubated at 37° C. and the GI recorded until reaching 999. At that time, 0.3 ml of the “seed vial” was introduced into test and compound containing vials. Vials were then read at 24-hour intervals and the rest of the procedure followed as for TB and BCG. The MIC determination was the same as for TB and BCG.
# mycobacteria = test: In vitro sterilizing model; type: cell-based
# [3] = tested on: latent (hypoxic) mycobacteria; test: Killing of latent (hypoxic) mycobacteria in vitro; type: cell-based
# M. bovis BCG = test: microbe, parasite or virus in culture; type: cell-based, Mycobacterium bovis BCG; conditions: for MIC: Mycobacterium tuberculosis variant bovis BCG, BCG, read-out: minimum inhibitory concentration (MIC)
# [4] = PTB strain #2, combination at 12.5 or 25.0 μg/ml each (FIG. 5)
# [5] = PTB strain #4, combination at 12.5 or 25.0 μg/ml each (FIG. 6)
# [6] = PTB strain #8, combination at 12.5 or 25.0 μg/ml each (FIG. 7)
# [7] = PTB strain #15, combination at 12.5 or 25.0 μg/ml each (FIG. 9)
# [8] = agent alone at 1.5 μg/ml (FIG. 1, FIG. 2)
# [9] = agent alone, DSA at 1/2, 1/4, or 1/8 of the MIC, NSA or OSA at the same concentrations as DSA (FIG. 1)
# [10] = PTB strain #13, combination at 12.5 or 25.0 μg/ml each (FIG. 8)
smiles,measurement,setting,value
CCCCCCCCCCS(=O)(=O)CC(=O)NCN1CCOCC1 [10 carbon compound],MIC,M. tuberculosis (H37Rv),6.25 µg/mL
same,decomposition in acid pH,[1]; acid pH,resists decomposition
same,half-time of breakdown to release DSA,[1]; physiologic pH (or about 7.5),about 15 hours
"CCCCCCCCCCS(=O)(=O)CC(N)=O [DSA, n-decanesulphonylacetamide]",MIC,M. tuberculosis (H37Rv),~1 µg/mL
same,MIC,"[2]; Mycobacterium avium, agent alone (FIGS. 4-9), read-out: MIC, various strains of PTB",≥ 25 µg/mL
same,activity against PTB (BACTEC growth index over time),[2]; [4],some activity
same,activity against PTB (BACTEC growth index over time),[2]; [5],some activity
same,activity against PTB (BACTEC growth index over time),[2]; [6],some activity
same,activity against PTB (BACTEC growth index over time),[2]; [7],some activity
same,activity in an in vitro sterilizing model,mycobacteria,active
same,killing of latent (hypoxic) mycobacteria in vitro,[3],kill latent (hypoxic) mycobacteria
same,MIC,M. bovis BCG,1.5 µg/mL
same,inhibition of growth of M. bovis BCG cells,M. bovis BCG; [8],some activity; also recorded: inhibit the growth
same,inhibition of growth of M. bovis BCG cells,M. bovis BCG; [9],no effect
"CCCCCCCCCS(=O)(=O)CC(N)=O [NSA, n-nonanesulphonylacetamide]",activity against PTB (BACTEC growth index over time),[2]; [4],some activity
same,activity against PTB (BACTEC growth index over time),[2]; [5],some activity
same,activity against PTB (BACTEC growth index over time),[2]; [6],some activity
same,activity against PTB (BACTEC growth index over time),[2]; [10],some activity
same,activity against PTB (BACTEC growth index over time),[2]; [7],some activity
same,"MIC, various strains of PTB",[2]; agent alone (FIGS. 4-9),considerably higher
same,MIC,M. bovis BCG,3 µg/mL
same,inhibition of growth of M. bovis BCG cells,M. bovis BCG; [8],ineffective
same,inhibition of growth of M. bovis BCG cells,M. bovis BCG; [9],no effect
"CCCCCCCCS(=O)(=O)CC(N)=O [OSA, n-octanesulphonylacetamide]",activity against PTB (BACTEC growth index over time),[2]; [4],no activity
same,activity against PTB (BACTEC growth index over time),[2]; [5],no activity
same,activity against PTB (BACTEC growth index over time),[2]; [6],no activity
same,activity against PTB (BACTEC growth index over time),[2]; [10],no activity
same,activity against PTB (BACTEC growth index over time),[2]; [7],no activity
same,"MIC, various strains of PTB",[2]; agent alone (FIGS. 4-9),considerably higher
same,MIC,M. bovis BCG,6.25 µg/mL
same,inhibition of growth of M. bovis BCG cells,M. bovis BCG; [8],ineffective
same,inhibition of growth of M. bovis BCG cells,M. bovis BCG; [9],no effect
